Assay results published in US20200163885A1, “COMPOSITION FOR DELIVERING PHYSIOLOGICALLY ACTIVE INGREDIENTS INTO BLOOD VESSEL” (LEMONEX INC., priority 2017, published 2020).

What was measured:
HepG2 cells = assay: Delivery through intravenous injection, HepG2 Xeno; format: in vivo, Balb/C nude mouse; settings: loaded on particles of Example 2-(3)-4)-(i), tail vein, 4 mg/kg
Protocol: Xeno was prepared in Balb/C nude mouse using HepG2 cells as a human liver cancer cell line. […] An injecting dose of doxorubicin was 4 mg/kg (mouse weight), and 80 μg of doxorubicin and 160 μg of particles were used based on an average body weight of 20 g of 5 to 8-week old Balb/C nude mouse.

[1] = Release of bioactive materials from loaded porous silica particles; format: physicochemical; settings: doxorubicin loaded on porous silica particles, SBF (pH 7.4), 37° C.
Protocol: 5 mg of porous silica particles loaded with doxorubicin ([…]) was dispersed in SBF (pH 7.4) (total volume: 1 ml), and then the solution was placed in a 1.5 ml tube and maintained in a dynamic condition of performing horizontal agitation at 20 rpm and 37° C. At each time point, the porous silica solution loaded with doxorubicin was settled using a centrifuge, and the absorbance (λa,b=480 nm) of the supernatant was measured to determine an amount of released doxorubicin.
10 mg of porous silica particles loaded with doxorubicin (2 mg) were dispersed in SBF (pH 7.4) inside a dialysis membrane (total volume: 0.5 ml), and then the dialysis membrane was placed in a 1.5 ml SBF tube (pH 7.4) and maintained in static conditions at 37° C. At each time point, the porous silica solution loaded with doxorubicin was settled using a centrifuge, and the absorbance (λab=480 nm) of the supernatant was measured to determine an amount of released doxorubicin.
The solution was maintained in a dynamic condition of performing horizontal agitation at 200 rpm and 37° C.
[…] of porous silica particles loaded with sorafenib (0.1 Mg) were dispersed in 10 ml of 1×PBS. The solution was maintained under a dynamic condition of performing horizontal agitation at 200 rpm and 37° C. At each time point, the porous silica solution loaded with sorafenib was settled using a centrifuge, and the absorbance (λab=270 nm) of the supernatant was measured to determine an amount of released sorafenib.
0.1 mg of particles loaded with retinoic acid were placed in a PBS (pH 7.4) solution containing 5% ethanol and maintained at 37° C. while performing horizontal agitation.
5 mg of particles loaded with p53 peptide were placed in 5 ml of 1×PBS containing 10% FBS or 5 ml of 1×PBS, and maintained under a dynamic environment while rotating at 20 rpm and 37° C. At each time point, centrifugation was conducted at 8500 rpm and a fluorescence intensity of 5(6)-carboxyfluorescein (FAM), which is a fluorescent label bound to p53 peptide from the supernatant ([…]: 480 nm, Emission: 520 nm).
10 μl of porous silica particles loaded with Cy5-siRNA was resuspended in SBF (pH 7.4, 37° C.) (total volume: 0.5 ml) and placed in a 1.5 ml tube. Release of siRNA was performed while horizontally agitating at 60 rpm and 37° C. At each time point, the siRNA-loaded porous silica solution was settled using a centrifuge, and a fluorescence intensity of the supernatant was measured.
20 μg of porous silica particles loaded with siRNA (1 μg) of the above 1) was dispersed in SBF (pH 7.4) inside a dialysis membrane (total volume: 0.5 ml), and the dialysis membrane was placed in a 1.5 ml SBF (pH 7.4) tube, and static conditions at 37° C. were maintained. At each time point, the siRNA-loaded porous silica solution was settled using a centrifuge, and the absorbance (λab=480 nm) of the supernatant was measured to determine an amount of released siRNA.
20 μg of porous silica particles loaded with pDNA (1 μg) were dispersed in SBF (pH 7.4) inside a dialysis membrane (total volume 0.5 ml), and the dialysis membrane was placed in a 1.5 ml SBF (pH 7.4) tube while shaking at 60 rpm and 37° C. At each time point, the porous silica solution loaded with pDNA was settled using a centrifuge and the absorbance (λab=480 nm) of the supernatant was measured to determine an amount of released pDNA.
Porous silica particles loaded with linear DNA (3 μg of linear DNA, 100 μg of porous silica particles) were resuspended in PBS (pH 7.4, 37° C.), and a dialysis membrane having a pore diameter of 20 kDa (the same tube as the tube in FIG. 18). After placing the suspension in the membrane, a dialysis tube was soaked in 1.5 ml of PBS.

[2] = Bioactive material loading capacity of porous silica particles; format: physicochemical; settings: particles of Example 2-(3)-4)-(i), distilled water, 1 hour
Protocol: After loading the negatively charged porous silica particles of Example 2-(3)-4)-(i) with doxorubicin, the absorbance of the supernatant was measured to determine an amount of loaded doxorubicin, and a loading rate (“loading capacity”) of the particles was calculated.
Specifically, 5 mg of porous silica particle powders and 2 mg of doxorubicin were mixed in 1 ml of distilled water, and then settled at room temperature for 1 hour. Subsequently, the solution was centrifuged at 8000 rpm for 10 minutes to settle the particles, and absorbance (λab=480 nm) of the supernatant was measured to determine an amount of the low molecular weight compound remaining in the supernatant without loading. Further, an amount of the loaded low molecular weight compound was calculated (an amount of the loaded low molecular weight compound=an amount of initially added low molecular weight compound−an amount of the low molecular weight compound remaining in the supernatant) so as to determine the loading capacity (loading capacity=bioactive material/porous silica particles, w/w %)
After loading the negatively charged porous silica particles in Example 2-(3)-4)-(i) with irinotecan, absorbance of the supernatant was measured and an amount of loaded irinotecan was calculated, and the loading capacity thereof was determined. […]

[3] = static condition, dialysis membrane

SMILES: COc1cccc2c1C(=O)c1c(O)c3c(c(O)c1C2=O)C[C@@](O)(C(=O)CO)C[C@@H]3O[C@H]1C[C@H](N)[C@H](O)[C@H](C)O1 [doxorubicin]
- tumor growth inhibition compared to injection of the material alone (HepG2 cells): excellent
- time to reach a release rate of 50% ([1]; dynamic condition, 20 rpm): about 1.5 hours
- time up to which continuously released ([1]; dynamic condition, 20 rpm): ≥ 12 h
- time to reach a release rate of 50% [1, 3]: about 6 days
- time up to which continuously released [1, 3]: ≥ 480 h
- loading of doxorubicin on the particles (colour of solution after centrifugation) [2]: mostly loaded on the particles
